From ChEMBL document CHEMBL5442334, “ASAP - In vitro safety pharmacology profile” (2024) come the findings set out here.

Series [1] concerns the target T1, Amine oxidase [flavin-containing] A (Rattus norvegicus, UniProt P21396).
T1 sequence (P21396 whole entry): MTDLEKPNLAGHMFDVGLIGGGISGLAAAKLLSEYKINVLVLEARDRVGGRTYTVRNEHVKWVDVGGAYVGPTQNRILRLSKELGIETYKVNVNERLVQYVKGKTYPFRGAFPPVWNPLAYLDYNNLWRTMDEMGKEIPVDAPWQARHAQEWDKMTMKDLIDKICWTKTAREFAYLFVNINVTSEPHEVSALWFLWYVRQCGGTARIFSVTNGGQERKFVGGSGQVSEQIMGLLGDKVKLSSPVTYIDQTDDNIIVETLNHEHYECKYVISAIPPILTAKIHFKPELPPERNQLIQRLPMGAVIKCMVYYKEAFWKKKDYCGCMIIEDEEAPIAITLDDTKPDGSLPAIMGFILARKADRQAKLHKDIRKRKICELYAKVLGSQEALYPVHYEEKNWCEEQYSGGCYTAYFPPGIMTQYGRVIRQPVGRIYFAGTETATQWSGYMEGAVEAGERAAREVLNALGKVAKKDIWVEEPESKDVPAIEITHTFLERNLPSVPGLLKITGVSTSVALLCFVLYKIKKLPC
Kind of series: SafetyScreen: Monoamine Oxidase A (MAO-A) Rat Binding Antagonist Radioligand LeadHunter Assay, catalogue number: 443. The following applies: at 10 µM, test compound concentration 10 uM.

Series [2] addresses Voltage-gated inwardly rectifying potassium channel KCNH2 (Homo sapiens, UniProt Q12809). In words: SafetyScreen: hERG Human Potassium Ion Channel [3H] Dofetilide Binding Antagonist Radioligand SafetyScreen, catalogue number: 4094. To be noted: at 10 µM, test compound concentration 10 uM. Background: The hERG channel carries a current that helps repolarise heart muscle cells.

In series [3] the target is 3',5'-cyclic-AMP phosphodiesterase 4D (Homo sapiens) (UniProt Q08499). In words: SafetyScreen: PDE4D2 Human Phosphodiesterase Enzymatic LeadHunter Assay, catalogue number: 4077. The series is classed as functional. The following applies: Test compound concentration 10.0 uM.
Sequence of 3',5'-cyclic-AMP phosphodiesterase 4D (Homo sapiens) (Q08499 whole entry): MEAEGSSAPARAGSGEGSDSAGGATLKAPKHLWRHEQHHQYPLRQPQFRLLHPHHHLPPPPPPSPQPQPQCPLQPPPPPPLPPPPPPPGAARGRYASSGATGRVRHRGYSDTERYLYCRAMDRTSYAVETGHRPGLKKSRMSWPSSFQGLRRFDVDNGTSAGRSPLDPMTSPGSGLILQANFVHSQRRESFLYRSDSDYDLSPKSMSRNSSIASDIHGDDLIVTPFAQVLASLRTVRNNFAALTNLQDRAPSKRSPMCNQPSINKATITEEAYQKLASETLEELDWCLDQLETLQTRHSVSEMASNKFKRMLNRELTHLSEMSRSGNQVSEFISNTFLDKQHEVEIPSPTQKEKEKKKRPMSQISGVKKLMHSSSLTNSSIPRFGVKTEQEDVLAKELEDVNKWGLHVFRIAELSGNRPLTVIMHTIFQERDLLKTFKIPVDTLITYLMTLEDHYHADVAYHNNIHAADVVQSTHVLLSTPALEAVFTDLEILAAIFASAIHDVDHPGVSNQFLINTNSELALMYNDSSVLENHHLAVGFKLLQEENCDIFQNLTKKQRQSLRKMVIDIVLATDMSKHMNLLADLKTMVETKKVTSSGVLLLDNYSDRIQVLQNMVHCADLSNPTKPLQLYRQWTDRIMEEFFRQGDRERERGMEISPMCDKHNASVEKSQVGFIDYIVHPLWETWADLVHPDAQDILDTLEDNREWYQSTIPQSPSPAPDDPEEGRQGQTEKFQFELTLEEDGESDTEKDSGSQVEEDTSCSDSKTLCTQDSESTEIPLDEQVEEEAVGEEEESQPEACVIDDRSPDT
The target of series [4] is T2, Alpha-2A adrenergic receptor (Homo sapiens) (UniProt P08913).
T2 sequence (whole entry): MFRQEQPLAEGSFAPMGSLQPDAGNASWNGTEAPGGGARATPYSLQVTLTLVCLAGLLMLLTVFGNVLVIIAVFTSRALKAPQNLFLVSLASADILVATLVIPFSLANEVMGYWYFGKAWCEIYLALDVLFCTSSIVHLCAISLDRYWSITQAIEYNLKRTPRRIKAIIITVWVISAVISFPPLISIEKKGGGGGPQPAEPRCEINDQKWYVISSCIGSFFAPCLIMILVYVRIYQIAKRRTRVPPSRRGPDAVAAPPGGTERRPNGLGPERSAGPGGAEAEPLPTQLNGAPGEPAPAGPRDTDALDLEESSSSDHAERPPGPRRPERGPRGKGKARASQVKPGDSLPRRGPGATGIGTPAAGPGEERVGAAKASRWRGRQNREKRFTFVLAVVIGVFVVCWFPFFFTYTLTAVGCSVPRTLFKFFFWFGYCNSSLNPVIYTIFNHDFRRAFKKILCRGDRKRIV
In words: SafetyScreen: alpha2A Human Adrenoceptor GPCR Binding Antagonist Radioligand LeadHunter Assay, catalogue number: 13. The following applies: Test compound concentration 10.0 uM.

Series [5] deals with cGMP-inhibited 3',5'-cyclic phosphodiesterase 3A (Homo sapiens) (UniProt Q14432). Kind of series: SafetyScreen: PDE3A Human Phosphodiesterase Enzymatic LeadHunter Assay, catalogue number: 4072. The series is classed as functional. To be noted: Test compound concentration 10.0 uM.
Sequence of cGMP-inhibited 3',5'-cyclic phosphodiesterase 3A (Homo sapiens) (Q14432 whole entry): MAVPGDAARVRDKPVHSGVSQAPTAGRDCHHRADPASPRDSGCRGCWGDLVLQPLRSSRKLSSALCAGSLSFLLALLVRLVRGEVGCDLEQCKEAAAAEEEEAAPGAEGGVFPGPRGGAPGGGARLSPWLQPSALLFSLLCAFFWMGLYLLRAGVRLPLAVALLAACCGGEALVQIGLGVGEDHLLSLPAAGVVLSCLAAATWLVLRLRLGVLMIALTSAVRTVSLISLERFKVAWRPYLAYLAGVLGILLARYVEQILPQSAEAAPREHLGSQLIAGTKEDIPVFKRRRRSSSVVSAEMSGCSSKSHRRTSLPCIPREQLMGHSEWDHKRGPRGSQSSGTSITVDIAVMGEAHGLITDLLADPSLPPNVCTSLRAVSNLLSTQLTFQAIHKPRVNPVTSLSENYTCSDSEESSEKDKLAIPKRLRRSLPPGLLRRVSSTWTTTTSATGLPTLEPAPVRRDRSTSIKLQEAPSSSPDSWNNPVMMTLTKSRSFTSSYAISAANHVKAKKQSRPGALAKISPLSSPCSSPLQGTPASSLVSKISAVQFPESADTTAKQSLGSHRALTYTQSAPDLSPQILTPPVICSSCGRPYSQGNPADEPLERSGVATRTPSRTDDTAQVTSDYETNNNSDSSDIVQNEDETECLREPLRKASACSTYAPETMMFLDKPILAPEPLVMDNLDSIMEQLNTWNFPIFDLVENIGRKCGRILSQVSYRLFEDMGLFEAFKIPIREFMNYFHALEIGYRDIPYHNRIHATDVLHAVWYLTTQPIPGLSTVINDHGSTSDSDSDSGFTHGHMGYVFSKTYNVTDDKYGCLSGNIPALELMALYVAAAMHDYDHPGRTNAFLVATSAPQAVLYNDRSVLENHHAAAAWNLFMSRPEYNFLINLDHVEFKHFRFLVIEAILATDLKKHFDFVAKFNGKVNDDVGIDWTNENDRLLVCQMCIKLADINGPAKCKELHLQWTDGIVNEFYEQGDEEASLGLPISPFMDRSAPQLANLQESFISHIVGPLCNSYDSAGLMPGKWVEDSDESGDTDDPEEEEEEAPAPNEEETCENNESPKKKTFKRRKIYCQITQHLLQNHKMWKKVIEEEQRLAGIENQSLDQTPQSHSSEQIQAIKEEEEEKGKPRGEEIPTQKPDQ
Series [6] addresses D(2) dopamine receptor (Homo sapiens) (UniProt P14416). Kind of series: SafetyScreen: D2S Human Dopamine GPCR Binding Agonist Radioligand LeadHunter Assay, catalogue number: 1322. The following applies: Test compound concentration 10.0 uM.
For series [7], the target named is T3, 5-hydroxytryptamine receptor 3A (Homo sapiens) (UniProt P46098).
T3 sequence (whole entry): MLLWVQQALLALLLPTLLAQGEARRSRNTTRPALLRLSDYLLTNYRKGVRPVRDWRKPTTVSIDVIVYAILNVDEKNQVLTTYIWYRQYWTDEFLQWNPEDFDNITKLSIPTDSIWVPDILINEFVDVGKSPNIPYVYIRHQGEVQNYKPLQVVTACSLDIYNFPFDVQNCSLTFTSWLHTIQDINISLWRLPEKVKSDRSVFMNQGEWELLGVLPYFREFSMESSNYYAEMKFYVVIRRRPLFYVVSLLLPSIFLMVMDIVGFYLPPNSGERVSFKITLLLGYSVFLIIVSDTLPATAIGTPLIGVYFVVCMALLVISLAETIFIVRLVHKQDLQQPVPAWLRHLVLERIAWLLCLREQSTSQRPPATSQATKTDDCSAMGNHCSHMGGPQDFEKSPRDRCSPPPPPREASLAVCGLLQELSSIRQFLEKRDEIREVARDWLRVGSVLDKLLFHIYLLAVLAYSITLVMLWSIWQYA
Kind of series: SafetyScreen: 5-HT3 Human Serotonin Ion Channel Binding Antagonist Radioligand LeadHunter Assay, catalogue number: 411. To be noted: Test compound concentration 10.0 uM.

The target of series [8] is Mu-type opioid receptor (Homo sapiens) (UniProt P35372). Kind of series: SafetyScreen: mu (MOP) Human Opioid GPCR Binding Agonist Radioligand LeadHunter Assay, catalogue number: 118. To be noted: Test compound concentration 10.0 uM.
Sequence of Mu-type opioid receptor (Homo sapiens) (P35372 whole entry): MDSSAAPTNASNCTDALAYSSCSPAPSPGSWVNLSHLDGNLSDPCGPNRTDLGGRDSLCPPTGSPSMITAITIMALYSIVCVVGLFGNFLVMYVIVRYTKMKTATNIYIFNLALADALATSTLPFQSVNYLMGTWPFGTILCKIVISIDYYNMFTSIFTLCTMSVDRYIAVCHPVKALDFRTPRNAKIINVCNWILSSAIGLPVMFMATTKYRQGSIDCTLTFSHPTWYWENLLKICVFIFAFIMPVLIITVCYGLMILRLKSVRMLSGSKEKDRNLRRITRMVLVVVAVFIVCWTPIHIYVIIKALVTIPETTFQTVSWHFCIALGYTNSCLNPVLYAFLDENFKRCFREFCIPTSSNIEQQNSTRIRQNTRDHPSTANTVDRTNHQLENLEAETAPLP
Series [9] deals with Vasopressin V1a receptor (Homo sapiens) (UniProt P37288). Kind of series: SafetyScreen: V1A Human Vasopressin / Oxytocin GPCR Binding Agonist Radioligand LeadHunter Assay, catalogue number: 159. To be noted: Test compound concentration 10.0 uM.
Sequence of Vasopressin V1a receptor (Homo sapiens) (P37288 whole entry, looked up): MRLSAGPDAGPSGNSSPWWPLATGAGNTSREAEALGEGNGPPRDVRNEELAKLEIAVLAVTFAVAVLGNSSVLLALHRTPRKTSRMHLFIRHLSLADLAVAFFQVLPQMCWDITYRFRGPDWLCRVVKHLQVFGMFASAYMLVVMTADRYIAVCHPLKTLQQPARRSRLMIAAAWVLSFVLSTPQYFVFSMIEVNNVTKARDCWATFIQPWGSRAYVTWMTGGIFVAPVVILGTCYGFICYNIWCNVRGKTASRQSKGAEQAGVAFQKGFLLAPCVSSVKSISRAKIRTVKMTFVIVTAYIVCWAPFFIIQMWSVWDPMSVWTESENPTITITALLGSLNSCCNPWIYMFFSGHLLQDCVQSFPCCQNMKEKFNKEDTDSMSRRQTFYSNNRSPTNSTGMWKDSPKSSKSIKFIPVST
Series [10] addresses Glutamate NMDA receptor (Rattus norvegicus) (UniProt P35439+Q00959+Q00960+Q00961+Q62645+Q8VHN2+Q9R1M7). Kind of series: SafetyScreen: Glutamate (NMDA, Non-Selective) Rat Ion Channel [3H] CGP-39653 Binding LeadHunter Assay, catalogue number: 66. The series is classed as protein-complex assay. To be noted: Test compound concentration 10.0 uM.
The target of series [11] is Prostaglandin G/H synthase 1 (Homo sapiens) (UniProt P23219). Kind of series: SafetyScreen: COX1 Human Cyclooxygenase Enzymatic LeadHunter Assay, catalogue number: 4173. The series is classed as functional. The following applies: Test compound concentration 10.0 uM.
Sequence of Prostaglandin G/H synthase 1 (Homo sapiens) (P23219 whole entry): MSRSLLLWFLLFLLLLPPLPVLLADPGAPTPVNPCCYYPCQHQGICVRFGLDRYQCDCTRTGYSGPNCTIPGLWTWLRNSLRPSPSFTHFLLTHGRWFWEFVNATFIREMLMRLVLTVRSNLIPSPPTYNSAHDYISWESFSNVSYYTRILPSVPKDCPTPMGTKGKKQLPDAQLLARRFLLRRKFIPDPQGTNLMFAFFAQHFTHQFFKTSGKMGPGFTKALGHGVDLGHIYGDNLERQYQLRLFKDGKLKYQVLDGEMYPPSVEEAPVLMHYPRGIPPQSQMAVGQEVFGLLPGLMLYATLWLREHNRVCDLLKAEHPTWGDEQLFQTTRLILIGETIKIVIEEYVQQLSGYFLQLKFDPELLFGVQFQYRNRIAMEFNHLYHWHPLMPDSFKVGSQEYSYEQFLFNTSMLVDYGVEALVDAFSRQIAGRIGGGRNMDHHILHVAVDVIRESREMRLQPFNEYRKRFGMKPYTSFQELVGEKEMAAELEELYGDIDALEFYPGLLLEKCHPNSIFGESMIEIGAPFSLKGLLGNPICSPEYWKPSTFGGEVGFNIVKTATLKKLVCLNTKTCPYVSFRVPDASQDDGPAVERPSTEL

Sequence of D(2) dopamine receptor (Homo sapiens) (P14416 whole entry): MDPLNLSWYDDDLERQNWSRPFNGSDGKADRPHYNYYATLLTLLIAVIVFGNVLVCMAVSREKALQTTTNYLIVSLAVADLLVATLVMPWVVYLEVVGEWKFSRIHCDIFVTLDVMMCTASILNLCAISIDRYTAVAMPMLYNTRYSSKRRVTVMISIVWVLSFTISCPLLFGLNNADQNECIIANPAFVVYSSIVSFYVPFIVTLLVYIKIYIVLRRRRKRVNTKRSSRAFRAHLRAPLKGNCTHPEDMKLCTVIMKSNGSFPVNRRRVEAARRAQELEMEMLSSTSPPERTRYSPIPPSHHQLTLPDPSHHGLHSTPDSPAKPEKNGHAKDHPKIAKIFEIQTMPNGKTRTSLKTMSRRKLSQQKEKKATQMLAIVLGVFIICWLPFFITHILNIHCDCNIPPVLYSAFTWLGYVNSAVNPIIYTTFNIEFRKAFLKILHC
Sequence of Voltage-gated inwardly rectifying potassium channel KCNH2 (Q12809 whole entry): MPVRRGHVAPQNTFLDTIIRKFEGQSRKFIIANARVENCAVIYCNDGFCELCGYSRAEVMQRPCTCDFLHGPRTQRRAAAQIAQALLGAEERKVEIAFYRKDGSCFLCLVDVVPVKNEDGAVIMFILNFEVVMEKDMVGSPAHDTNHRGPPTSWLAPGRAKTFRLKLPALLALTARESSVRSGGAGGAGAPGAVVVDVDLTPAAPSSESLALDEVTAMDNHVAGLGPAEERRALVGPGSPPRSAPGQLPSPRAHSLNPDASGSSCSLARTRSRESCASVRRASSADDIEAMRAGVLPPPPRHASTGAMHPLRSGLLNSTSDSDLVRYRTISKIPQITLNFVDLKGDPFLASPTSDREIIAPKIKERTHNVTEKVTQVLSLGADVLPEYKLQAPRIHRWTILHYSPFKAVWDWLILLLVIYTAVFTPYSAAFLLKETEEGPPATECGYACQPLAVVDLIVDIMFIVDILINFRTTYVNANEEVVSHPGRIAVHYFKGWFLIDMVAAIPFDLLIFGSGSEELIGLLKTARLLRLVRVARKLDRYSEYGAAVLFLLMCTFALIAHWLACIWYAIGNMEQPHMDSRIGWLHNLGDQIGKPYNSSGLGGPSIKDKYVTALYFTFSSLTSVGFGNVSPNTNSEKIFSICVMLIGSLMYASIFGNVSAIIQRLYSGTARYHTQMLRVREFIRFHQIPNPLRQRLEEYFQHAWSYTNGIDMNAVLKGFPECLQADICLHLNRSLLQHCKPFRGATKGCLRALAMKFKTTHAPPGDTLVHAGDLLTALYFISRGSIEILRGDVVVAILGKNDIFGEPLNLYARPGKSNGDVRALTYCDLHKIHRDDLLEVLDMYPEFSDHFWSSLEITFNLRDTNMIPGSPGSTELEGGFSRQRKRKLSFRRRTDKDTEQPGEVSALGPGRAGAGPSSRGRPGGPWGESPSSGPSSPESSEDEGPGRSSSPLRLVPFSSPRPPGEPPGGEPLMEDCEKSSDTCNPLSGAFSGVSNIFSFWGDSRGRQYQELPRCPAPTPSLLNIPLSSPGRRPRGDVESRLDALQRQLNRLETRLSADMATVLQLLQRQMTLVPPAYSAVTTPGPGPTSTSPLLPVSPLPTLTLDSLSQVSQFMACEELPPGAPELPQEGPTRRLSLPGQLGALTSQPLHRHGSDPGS

As to `CC(C)[C@@H](Nc1ncnc2[nH]c(-c3cnn(C)c3C#N)cc12)c1ccc2c(n1)OCCO2`, the Inhibition is recorded as 8% in series [1] and 32% in [2]. Moreover, the inhibition is 44% in series [3]; 9% in series [4]; 37% in series [5]; 3% in series [6]; 4% in series [7]; 77% in series [8]. In addition, the inhibition in series [9] amounted to 20%; in series [10], 1%.
Regarding `CNCc1cc(-c2cc3c(N[C@@H](c4ccc5c(c4)S(=O)(=O)CCC5)C(C)C)ncnc3[nH]2)co1`, the Inhibition in series [1] is 11%. Further, the inhibition is -6% in series [11]; 43% in series [3]; 15% in [4]; -5% in series [5]; -9% in series [6]; 0% in series [7]. In addition, the results for the inhibition in series [8], in [9] and in [10] were -5%, 13% and -1%, respectively.
Regarding `COc1ccc([C@H](Cc2nnn[nH]2)NC(=O)c2ncnc3[nH]ccc23)cc1`, the Inhibition in series [1] was found to be 0%; in series [2], 5%. Also, the inhibition in series [11] was 17%; in series [3] it was 41%; in [4], -1%; in [5] it was 62%; in series [6], -4%; in series [7], 6%. The inhibition is -3% in series [8], 5% in series [9] and 9% in [10].
Take `Cc1nn(C)cc1-c1cc2c(N[C@H](c3ccc4c(c3)S(=O)(=O)CCC4)C(C)C)ncnc2[nH]1`: the figures for the Inhibition in [1] and in series [2] were 5% and 3%, respectively. For the same compound, the inhibition in series [3] was 43%; in series [4] it was 5%; in series [5], 46%; in series [7] it was 6%; in series [8] it was 28%; in series [9], 14%. Also, in [10], the inhibition was -2%.
With `CC(C)[C@H](Nc1ncnc2[nH]c(-c3cnn(C)c3C#N)cc12)c1ccc2c(n1)OCCO2`, the Inhibition worked out at 4% in series [1] and 29% in series [2]. For the same compound, the inhibition in series [3] was 70%; in series [4], 7%; in series [5], 37%; in [6], -7%; in series [7] it was 6%; in [8], 15%. The figures for the inhibition in [9] and in series [10] were 27% and 2%, respectively.
`C[C@H](C(=O)O)[C@@H](NC(=O)c1ncnc2[nH]ccc12)c1ccc(Br)cc1`: the results for the Inhibition in [1] and in series [2] were -1% and 14%, respectively. For the same compound, the inhibition was 14% in series [11]; 30% in series [3]; 3% in series [4]; 52% in series [5]; -1% in series [6]; 2% in series [7]. For the same compound, the inhibition was -10% in [8], 62% in series [9] and 4% in series [10].
On to `Cn1ncc(-c2cc3c(N[C@@H](c4ccc5c(n4)OCCO5)C(C)(C)C)ncnc3[nH]2)c1C#N`, for which the Inhibition is 10% in series [1] and 36% in [2]. Moreover, the inhibition in series [3] was 20%; in [4], 11%; in series [5] it was 37%; in [6] it was 13%; in series [7], 3%; in series [8], 28%. The inhibition in series [9] came to 57%; in series [10], 11%.
In the case of `CC(C)[C@@H](Nc1ncnc2[nH]c(C(=O)N[C@@H]3CCN(C)C3)cc12)c1ccc2c(c1)S(=O)(=O)CCC2`, the Inhibition in [1] stood at 3%; in series [2] it was 7%. Further, the inhibition is 44% in [11]; 37% in series [3]; 6% in series [4]; 4% in series [5]; -7% in [6]; 2% in series [7]. Moreover, the inhibition in series [8] is 7%; in [9], 6%; in series [10] it was 1%.
Regarding `CNC(=O)Cn1cc(-c2cc3c(N[C@@H](c4ccc5c(c4)S(=O)(=O)CCC5)C(C)C)ncnc3[nH]2)cn1`, the Inhibition in series [1] was 8%; in series [2], 4%. The inhibition in series [11] is -8%; in series [3], 41%; in series [4], 4%; in series [5] it was -9%; in series [7] it was 5%; in [8] it was 3%. The inhibition was 15% in series [9] and -1% in [10].
As to `CC(C)[C@H](Nc1ncnc2[nH]ccc12)c1ccc2c(c1)S(=O)(=O)CCC2`, the Inhibition in series [1] is on record as 7%; in [2], 20%. Further, the inhibition in [11] worked out at 85%; in [3], 36%; in series [4], 10%; in series [5] it was 29%; in series [7], 8%; in series [8], 8%. In addition, the inhibition was 6% in series [9] and -1% in [10].

Usually Inhibition stands for the drop in the measured response relative to a control, in per cent. Broadly, the inhibition is the relative decrease from the control value, in per cent.
